The record followed here is patent publication US20090149504A1, “Novel 5-Substituted Indole Derivatives As Dipeptidyl Peptidase IV (DPP-IV) Inhibitors” (AURIGENE DISCOVERY TECHNOLOGIES LIMITED, priority 2005, published 2009).

For assay [1], the target named is T1, DPP-IV from porcine kidney (Sus scrofa, UniProt P22411).
T1 construct: DPP-IV from porcine kidney (D-7052); purchased Sigma Chemical Company, USA D-7052; host or cells: porcine kidney (tissue-derived)
Kind of assay: In vitro DPP IV inhibition measurement (fluorimetric, Gly-Pro-AMC substrate). The format is biochemical. The settings on record: 50 μM Gly-Pro-AMC, pH 8, 30° C. As to the method:
DPP-IV from porcine kidney (D-7052) and the substrate Gly-Pro-7-amido-4-methylcoumar0in hydrobromide (Gly-Pro-AMC, G2761) were obtained from Sigma Chemical Company, USA. Stock solutions of test compounds were prepared in dimethylsulfoxide. DPP IV enzyme cleaves the peptide substrate Gly-Pro-AMC leading to the formation of AMC, which is highly fluorescent. Molecules that inhibit DPP IV prevent or reduce the liberation of AMC from the substrate. The ability of test compounds to inhibit DPP IV was measured fluorimetrically by monitoring the formation of AMC. The assay was carried out in 20 mM Tris.HCl, pH 8 buffer. Test compounds were incubated with the enzyme (5 mU/100 μl) in a 96-well black flat bottom microtiter plate (Greiner bio-one, Germany) for 20 minutes at 30° C. and the reaction was initiated by the addition of 50 μM Gly-Pro-AMC. After 30 minutes incubation at 30° C., the fluorescence at 460 nm was measured (λex=360 nm) in a Spectramax Gemini spectrofluorimeter (Molecular Devices, USA). IC50, the concentration of compound required to inhibit 50% of enzyme activity was determined and the compounds were rated accordingly. For the IC50 determination, non-linear fitting of the dose-response curves were carried out using Kaleidagraph v3 software. LAF237 [Novarti's vildagliptin is a new class of oral antidiabetic agents known as dipeptidyl peptidase IV inhibitors (DPP-IV) inhibitors] was used as the standard inhibitor for the assay.

Assay [2] has as its system Male wistar rats. Kind of assay: In vivo efficacy study in rat: oral glucose tolerance (plasma glucose). The settings on record: 3 mg/kg oral, 2 g/kg oral glucose, measured at 20 min after glucose challenge. As to the method:
(§1) Male wistar rats were divided into groups of 6, fasted for approximately 16-18 hours before the experiment, and dosed orally with 0.3, 1, 3 and 10 mg/kg of the test compounds in carboxymethylcellulose (CMC) or Tween 80. After 30 min of test compound dosing, an oral glucose bolus of 2 g/kg was administered directly into the stomach of the test animals. Blood samples obtained at various time points from chronic jugular vein catheters/retro orbital bleed were analyzed for plasma glucose and plasma DPP-IV activity. Measurement of Plasma glucose was carried out using Merckotest Glucose kit (GOD-POD method, Merck) in Selectra Clinical Chemistry analyzer, and area under the curve (AUC) for glucose (0-120 min) was calculated. Plasma DPP-IV activity was measured as described above (Example-64), using 2 μl plasma for every reaction.

Assay [3] addresses T2, Plasma DPP-IV activity (Rattus norvegicus, UniProt P14740).
T2 construct: from tissue; host or cells: plasma of orally dosed male Wistar rats
The assay is described as follows: In vivo efficacy study in rat: plasma DPP-IV activity after oral dosing. The note with it: 3 mg/kg oral, male wistar rats, measured at 20 min after glucose challenge. The procedure:
DPP-IV from porcine kidney (D-7052) and the substrate Gly-Pro-7-amido-4-methylcoumar0in hydrobromide (Gly-Pro-AMC, G2761) were obtained from Sigma Chemical Company, USA. Stock solutions of test compounds were prepared in dimethylsulfoxide. DPP IV enzyme cleaves the peptide substrate Gly-Pro-AMC leading to the formation of AMC, which is highly fluorescent. Molecules that inhibit DPP IV prevent or reduce the liberation of AMC from the substrate. The ability of test compounds to inhibit DPP IV was measured fluorimetrically by monitoring the formation of AMC. The assay was carried out in 20 mM Tris.HCl, pH 8 buffer. […] After 30 minutes incubation at 30° C., the fluorescence at 460 nm was measured (λex=360 nm) in a Spectramax Gemini spectrofluorimeter (Molecular Devices, USA). […]
as §1, with “After 30 min of test compound dosing, an oral glucose bolus of 2 g/kg was administered directly into the stomach of the test animals.” left out, “Plasma DPP-IV activity was measured as described above (Example-64), using 2 μl plasma for every reaction.” left out

The subject of assay [4] is Zucker fa/fa fatty rats. Kind of assay: In vivo efficacy in genetic models: oral glucose challenge in Zucker fa/fa rats. The arrangement: species or system rat. The note with it: 3 mg/kg. As to the method:
(a) Zucker fa/fa rats Zucker fa/fa fatty rats were obtained from IffaCredo, France. The animals were maintained under 12 hour light and dark cycle at 24+/−2° C., given standard laboratory chow (NIN, Hyderabad, India) and water, ad libitum. The test compound (Example-4) was administered at 3 mg/kg dose to overnight fasted animals. The control animals received the vehicle (0.2% tween 80, dosed at 1 ml/kg) orally. Thirty minutes after administration of test compound, 2 g/kg glucose at 5 ml/kg was administered by oral gavage. Blood samples were collected at 0 (prior to compound administration), 7, 20, 40, 60 and 120 min after glucose challenge, for estimation of plasma glucose and insulin levels, and DPP-IV activity. Additional blood samples were collected in chilled EDTA tubes and immediately DPP-IV inhibitor (Linco Research, USA) was added to achieve final concentration of 10 μl/mL of blood to estimate GLP-1 levels. Blood samples were centrifuged and separated plasma samples were stored at −20° C. until analysis. Plasma DPP-IV activity and glucose levels were measured as described above (Example-65). Insulin and GLP-1 levels were measured using ELISA kits, as per manufacturer's procedures (Linco Research, USA). […] There was a 7-fold increase in GLP-1 levels at 7 min and 6-fold increase in insulin levels at 15 min after glucose challenge.

For assay [5], the system named is Male C57BL/KsJ-db/db mice. The assay is described as follows: In vivo efficacy in genetic models: oral glucose challenge in db/db mice. The settings on record: 3 mg/kg. The procedure: (b) db/db mice Male C57BL/KsJ-db/db mice of 8 to 14 weeks age, having body weight in the range of 35 to 60 grams, bred at Discovery Research, Dr. Reddy's Laboratories, were used in the experiment. The animals were maintained under 12 hour light and dark cycle at 24+/−2° C., given standard laboratory chow (NIN, Hyderabad, India) and water, ad libitum. The test compound (Example-4) was administered at 3 mg/kg dose. The control animals received the vehicle (0.2% Tween 80, dosed at 10 ml/kg) through oral gavage. 30 minutes after administration of test compound, 1.5 g/kg glucose at 10 ml/kg was administered by oral gavage. Blood samples were collected at 0 (prior to compound administration), 15, 30, 60 and 120 min after glucose challenge for estimation of plasma glucose levels, insulin and DPP-IV activity. Blood samples (0, 7, 15 min) from a satellite group of animals were collected in chilled EDTA tubes and immediately DPP-IV inhibitor (Linco Research) was added to achieve final concentration of 10 μl/mL of blood to estimate GLP-1 levels. Blood samples were centrifuged and separated plasma was stored at −20° C. until analysis. Glucose, Insulin and GLP-1 levels, and plasma DPP-IV activity were measured as described above (Example-66). Compound (Example-4) reduced the glucose levels by 58%. There was 16-fold increase in GLP-1 levels at 7 min and 5.4-fold increase in insulin levels at 15 min after glucose challenge.

The mark [6] stands for this setting: at 7 min after glucose challenge.
Setting [7] is: at 15 min after glucose challenge.

Structures are written as SMILES. Where a name gives a salt, the structure may show the parent alone.

T1 sequence (P22411 whole entry): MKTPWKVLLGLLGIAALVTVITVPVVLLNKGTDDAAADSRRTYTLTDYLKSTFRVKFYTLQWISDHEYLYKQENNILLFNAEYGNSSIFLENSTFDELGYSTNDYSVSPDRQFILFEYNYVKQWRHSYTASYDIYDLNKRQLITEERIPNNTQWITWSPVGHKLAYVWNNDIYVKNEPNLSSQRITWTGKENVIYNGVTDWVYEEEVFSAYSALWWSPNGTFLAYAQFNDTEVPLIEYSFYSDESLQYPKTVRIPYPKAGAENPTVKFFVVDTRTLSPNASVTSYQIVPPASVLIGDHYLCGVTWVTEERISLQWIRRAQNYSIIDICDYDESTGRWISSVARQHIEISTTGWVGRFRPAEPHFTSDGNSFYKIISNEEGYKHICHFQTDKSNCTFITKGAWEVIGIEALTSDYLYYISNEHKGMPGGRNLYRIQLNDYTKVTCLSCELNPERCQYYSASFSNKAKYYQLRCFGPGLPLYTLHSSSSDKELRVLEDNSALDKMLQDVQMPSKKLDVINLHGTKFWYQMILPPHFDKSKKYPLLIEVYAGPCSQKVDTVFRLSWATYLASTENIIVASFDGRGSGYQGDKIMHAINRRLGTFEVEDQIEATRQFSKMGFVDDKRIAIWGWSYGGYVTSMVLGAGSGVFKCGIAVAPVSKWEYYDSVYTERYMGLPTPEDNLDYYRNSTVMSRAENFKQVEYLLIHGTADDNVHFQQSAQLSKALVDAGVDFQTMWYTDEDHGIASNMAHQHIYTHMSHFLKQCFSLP
T2 sequence (P14740 37-767 limits assumed): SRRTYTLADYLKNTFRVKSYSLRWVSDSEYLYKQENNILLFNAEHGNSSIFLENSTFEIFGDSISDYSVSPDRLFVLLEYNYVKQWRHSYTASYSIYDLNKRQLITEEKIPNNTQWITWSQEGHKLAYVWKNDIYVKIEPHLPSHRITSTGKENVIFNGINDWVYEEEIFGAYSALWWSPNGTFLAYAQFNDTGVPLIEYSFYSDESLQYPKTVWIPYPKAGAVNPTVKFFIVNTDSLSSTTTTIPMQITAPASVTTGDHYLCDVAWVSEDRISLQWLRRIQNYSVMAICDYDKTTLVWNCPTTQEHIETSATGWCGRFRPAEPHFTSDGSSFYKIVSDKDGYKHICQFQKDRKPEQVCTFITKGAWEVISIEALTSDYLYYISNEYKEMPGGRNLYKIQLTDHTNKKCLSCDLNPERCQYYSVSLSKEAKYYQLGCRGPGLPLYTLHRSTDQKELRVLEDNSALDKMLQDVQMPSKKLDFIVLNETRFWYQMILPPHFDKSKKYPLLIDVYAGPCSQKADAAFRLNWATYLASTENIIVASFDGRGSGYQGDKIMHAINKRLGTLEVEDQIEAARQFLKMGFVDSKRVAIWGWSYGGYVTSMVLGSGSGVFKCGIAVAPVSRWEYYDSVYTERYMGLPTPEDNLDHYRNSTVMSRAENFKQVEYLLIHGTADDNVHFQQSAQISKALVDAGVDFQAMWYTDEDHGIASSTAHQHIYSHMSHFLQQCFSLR

As for `N#Cc1ccc(Oc2ccc3[nH]cc(C[C@H](N)C(=O)N4CCC[C@H]4C#N)c3c2)nc1` [Example 6, (S,S) 6-{3-[2-Amino-3-(2-cyano-pyrrolidin-1-yl)-3-oxo-propyl]-1H-indol-5-yloxy}-nicotinonitrile. Trifluoroacetic acid salt], the 50% inhibitory concentration (IC50) in assay [1] was found to be 5.5 nM.
In assay [1], `N#Cc1ccc(Oc2ccc3[nH]cc(C[C@H](N)C(=O)N4C[C@@H](F)C[C@H]4C#N)c3c2)nc1` [Example 30, (S,S,S) 6-{3-[2-Amino-3-(2-cyano-4-fluoro-pyrrolidin-1-yl)-3-oxo-propyl]-1H-indol-5-yloxy}-nicotinonitrile. Trifluoroacetic acid salt] yielded an IC50 of 4.7 nM.
Still for that read-out and setting: then `N#Cc1cccnc1Oc1ccc2[nH]cc(C[C@H](N)C(=O)N3C[C@@H](F)C[C@H]3C#N)c2c1` [Example 27, (S,S,S) 2-{3-[2-Amino-3-(2-cyano-4-fluoro-pyrrolidin-1-yl)-3-oxo-propyl]-1H-indol-5-yloxy} nicotinonitrile. Trifluoroacetic acid salt], with 8.9 nM.
As for `N#C[C@@H]1CCCN1C(=O)[C@@H](N)Cc1c[nH]c2ccc(Oc3ccc([N+](=O)[O-])cn3)cc12` [Example 4, Trifluoroacetic acid salt], the “% Glucose reduction” value in assay [2] was 34%. The same compound displayed an inhibition at 3 mg/kg in assay [3] of 90%. The compound also yielded a reduction in glucose in assay [4] (2 g/kg oral glucose 30 min after compound) of 55%. Further, the “increase in GLP-1 levels” value turned out to be 7 fold in assay [4] (setting [6]) and 16 fold in assay [5] (setting [6]). The “increase in insulin levels” value in assay [4] (setting [7]) was 6 fold; in assay [5] (setting [7]), 5.4 fold. In assay [1], the half-maximal inhibitory concentration (IC50) came out at 1.32 nM. Further, in assay [5] (1.5 g/kg oral glucose 30 min after compound), the “reduced the glucose levels” value amounted to 58%.
As to `N#Cc1ccc(Oc2ccc3[nH]cc(C[C@H](N)C(=O)N4CSC[C@@H]4C#N)c3c2)nc1` [Example 33, (S,S) 6-{3-[2-Amino-3-(4-cyano-thiazolidin-3-yl)-3-oxo-propyl]-1H-indol-5-yloxy}-nicotinonitrile. Trifluoroacetic acid salt], the IC50 in assay [1] was found to be 3.5 nM. This lies in the single-digit nanomolar range.
In the case of `N#C[C@@H]1CCCN1C(=O)[C@@H](N)Cc1c[nH]c2ccc(Oc3ccc([N+](=O)[O-])cc3)cc12` [Example 12], in assay [2], the “% Glucose reduction” value was determined as 22%. In assay [3], this compound came in with an inhibition at 3 mg/kg of 74%. Also, half-maximal inhibition in assay [1] (IC50) required 1.82 nM.
Regarding `N#Cc1cccnc1Oc1ccc2[nH]cc(C[C@H](N)C(=O)N3CSC[C@@H]3C#N)c2c1` [Example 32, (S,S) 2-{3-[2-Amino-3-(4-cyano-thiazolidin-3-yl)-3-oxo-propyl]-1H-indol-5-yloxy}-nicotinonitrile. Trifluoroacetic acid salt], the concentration for half-maximal inhibition (IC50) in assay [1] amounted to 6.3 nM.
Still for that read-out and setting: then `N#C[C@H]1CSCN1C(=O)[C@@H](N)Cc1c[nH]c2ccc(Oc3ccc([N+](=O)[O-])cc3)cc12` [Example 34, Trifluoroacetic acid salt], with 2.8 nM.
In assay [1], `N#C[C@@H]1C[C@H](F)CN1C(=O)[C@@H](N)Cc1c[nH]c2ccc(Oc3ccc([N+](=O)[O-])cc3)cc12` [Example 28, Trifluoroacetic acid salt] registered an IC50 of 1.5 nM.
On the same count and under the same terms, then `N#C[C@H]1CSCN1C(=O)[C@@H](N)Cc1c[nH]c2ccc(Oc3ccc([N+](=O)[O-])cn3)cc12` [Example 35, (S,S) 3-{2-Amino-3-[5-(5-nitro-pyridin-2-yloxy)-1H-indol-3-yl]-propionyl}-thiazolidine-4-carbonitrile. Trifluoroacetic acid salt], with 3.7 nM.
